Data from the supplement of paper PMC4862054.

Assays:
Assay in all cases: normalised viability (% of control), CellTiter-Blue; higher = more viable cells (about 100 = DMSO control)
Details in all cases: incubation time: 72 h
CAL-148 [1] = system: CAL-148
Description: (§1)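 DSRT, CellTiter-Blue viability, 72 h incubation. Signal is normalised to DMSO and benzethonium chloride controls. Value is the normalised response at dose 7.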

DU-4475 [2] = system: DU-4475
Description: as §1

CAL-85-1 [3] = system: CAL-85-1
Description: as §1

CAL-51 [4] = system: CAL-51
Description: as §1

HDQ-P1 [5] = system: HDQ-P1
Description: as §1

MDA-MB-453 [6] = system: MDA-MB-453
Description: as §1

CAL-148 [7] = system: CAL-148; remark: listed apart in the source
Description: (§2)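 DSRT, CellTiter-Blue viability, 72 h incubation. Signal is normalised to DMSO and benzethonium chloride controls. Value is the normalised response at dose 9.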

DU-4475 [8] = system: DU-4475; remark: listed apart in the source
Description: as §2

CAL-85-1 [9] = system: CAL-85-1; remark: listed apart in the source
Description: as §2

CAL-51 [10] = system: CAL-51; remark: listed apart in the source
Description: as §2

HDQ-P1 [11] = system: HDQ-P1; remark: listed apart in the source
Description: as §2

MDA-MB-453 [12] = system: MDA-MB-453; remark: listed apart in the source
Description: as §2

| SMILES | normalised viability (CAL-148 [1]) | normalised viability (DU-4475 [2]) | normalised viability (CAL-85-1 [3]) | normalised viability (CAL-51 [4]) | normalised viability (HDQ-P1 [5]) | normalised viability (MDA-MB-453 [6]) | normalised viability (CAL-148 [7]) | normalised viability (DU-4475 [8]) | normalised viability (CAL-85-1 [9]) | normalised viability (CAL-51 [10]) | normalised viability (HDQ-P1 [11]) | normalised viability (MDA-MB-453 [12]) |
| --- | --- | --- | --- | --- | --- | --- | --- | --- | --- | --- | --- | --- |
| CCN(CC)CCCC(C)Nc1ccnc2cc(Cl)ccc12 (stereo not drawn) [Chloroquine] (99 nM) | 99.1% | 110% | 81.9% | 91% | 132% | 99.7% | – | – | – | – | – | – |
| CCN(CC)CCCC(C)Nc1ccnc2cc(Cl)ccc12 (stereo not drawn) [Chloroquine] (990 nM) | – | – | – | – | – | – | 84.8% | 115% | 91.3% | 89.5% | 126% | 98.4% |
| CN(Cc1cnc2nc(N)nc(N)c2n1)c1ccc(C(=O)N[C@@H](CCC(=O)O)C(=O)O)cc1 [Methotrexate] (1000 nM) | 67.8% | 110% | 57.4% | 42.5% | 77.6% | 84.2% | – | – | – | – | – | – |
| CN(Cc1cnc2nc(N)nc(N)c2n1)c1ccc(C(=O)N[C@@H](CCC(=O)O)C(=O)O)cc1 [Methotrexate] (10000 nM) | – | – | – | – | – | – | 69.1% | 102% | 65.3% | 39.2% | 99.7% | 90% |
| COc1c2occc2cc2ccc(=O)oc12 [Methoxsalen] (1000 nM) | 106% | 112% | 104% | 100% | 96.9% | 97.9% | – | – | – | – | – | – |
| COc1c2occc2cc2ccc(=O)oc12 [Methoxsalen] (10000 nM) | – | – | – | – | – | – | 53.6% | 71.6% | 61% | 49.2% | 128% | 28.5% |
| C=CCN(/C=C1/C(=O)O[C@H](COC)[C@@]2(C)C1=C(O)C(=O)C1=C2[C@H](OC(C)=O)C[C@]2(C)C(=O)CC[C@@H]12)CC=C [PX-866] (1000 nM) | 99.4% | 102% | 95% | 112% | 86.3% | 101% | – | – | – | – | – | – |
| CC[C@H](CO)Nc1nc(NCc2ccccc2)c2ncn(C(C)C)c2n1 [Roscovitine] (1000 nM) | 92.1% | 101% | 87.8% | 105% | 104% | 96.2% | – | – | – | – | – | – |
